# Data published in US4443619A, “Chlorocitric acids” (Hoffmann-La Roche Inc., priority 1981, dated 1984).
# What was measured:
# [1] = Total body fat in meal-fed rats, oral administration, 17 day study (Example 22); format: in vivo, Charles River female rats; details: 17 days
# Method: Two month old Charles River female rats (Charles River Breeding Laboratories, Wilmington, Mass.) were individually housed in wire-bottomedcages in a temperature-regulated (22° C.) light-controlled room (12 hr light, 6 a.m. to 6 p.m. and 12 hr dark, 6 p.m. to 6 a.m.). […] On the 8th day, the animals were administered water or (-)-threo-chlorocitric acid at the indicated concentration by oral intubation 30 min before the 3 hr meal. Treatment was continued for 17 days. Food cups were weighed immediately after the meal. After 17 days of treatment, rats were killed by decapitation and blood was removed. […] C. Sullivan, et al, Am. J. Clinical Nutrition, 30 767 (1977). […] Total carcass and lipid data are expressed in grams and percentages of carcass weight.
# [2] = Body weight and food intake in meal-fed rats, 16 day study (Example 19); format: in vivo, Charles River female rats; details: 16 days
# Method: Two month old Charles River female rats (Charles River Breeding Laboratories, Wilmington, Mass.) were individually housed in wire-bottomedcages in a temperature-regulated (22° C.) light-controlled room (12 hr light, 6 a.m. to 6 p.m. and 12 hr dark, 6 p.m. to 6 a.m.). […] (1) control, (2) (-)-threo-chlorocitric acid (1.0 mmoles/kg, 227 mg/kg) administered by oral intubation 30 min before the 3 hr meal, and (3) (-)-threo-chlorocitric acid (1.1 mmoles/kg, 250 mg/kg) as a dietary admixture for the 3 hr meal. Treatment was continued for 16 days. The amount of body weight gained and food consumed during the study were determined.
# [3] = Food consumption of three diets in meal-fed rats (Example 15); format: in vivo, Charles River female rats; details: mean ± S.E.
# Method: Charles River female rats (Charles River Breeding Laboratories, Wilmington, Mass.), weighing 170 to 200 g, were individually housed in wire-bottomed cages in a temperature-regulated (22° C.) light-controlled room (12 hr light, 6 a.m. to 6 p.m. and 12 hr dark, 6 p.m. to 6 a.m.). Animals were fasted 48 hr, then meal-fed the indicated diets from 8 to 11 a.m. Following 5 to 12 days alimentation on the meal-feeding regimen, rats were dosed with the appropriate compounds orally by intubation 1/2 hr before the 3 hr meal. Food cups were weighed immediately after the 1st, 2nd and 3rd hr of the meal. The control groups consisted of 8 to 10 rats and the experimental group considered of 5 to 6 rats.
# [4] = Effect of stereoisomers of chlorocitric acid on food consumption in meal-fed rats (Example 14); format: in vivo, Charles River female rats; details: mean ± S.E.
# Method: Animals were fasted 48 hr, then meal-fed the 70% glucose diet described by A. C. […] Following 5 to 12 days alimentation on the meal-feeding regimen, rats were dosed with the appropriate compounds orally by intubation 1/2 hr before the 3 hr meal. Food cups were weighed immediately after the meal. The control group consisted of 5 to 10 rats, while the experimental group consisted of 4 to 6 rats.
# [5] = Body weight gain in 8 hour meal-fed Zucker rats (Example 18); format: in vivo, lean (Fa/-) and obese (fa/fa); details: 0.66 mmoles/kg b.i.d. oral, 6 days, mean ± S.E.
# Method: Lean (Fa/-) Zucker rats and obese (fa/fa) Zucker rats of both sexes were individually housed in wire-bottomed cages in a temperature-regulated (22° C.) light-controlled room (12 hr light, 6 a.m. to 6 p.m. and 12 hr dark, 6 p.m. to 6 a.m.). The animals were fed a high carbohydrate (70% glucose) diet ad libitum for 13 days, dosed with the indicated compounds by oral intubation for 9 days and allowed to recover for 3 days. The animals were then meal fed from 8 a.m. to 4 p.m. for a period of 5 days, following which they were continued on the same meal schedule for an additional 6 days. During the 6-day period, the animals were administered the indicated compounds by oral intubation at 8 a.m. and 12 p.m. Body weight gain during the 6-day period was determined.
# [6] = Body weight and food intake in meal-fed rats, oral administration, 17 day study (Example 21); format: in vivo, Charles River female rats; details: 17 days
# Method: Two month old Charles River female rats (Charles River Breeding Laboratories, Wilmington, Mass.) were individually housed in wire-bottomedcages in a temperature-regulated (22° C.) light-controlled room (12 hr light, 6 a.m. to 6 p.m. and 12 hr dark, 6 p.m. to 6 a.m.). […] On the 8th day, the animals were administered water or (-)-threo-chlorocitric acid at the indicated concentration by oral intubation 30 min before the 3 hr meal. Treatment was continued for 17 days. Food cups were weighed immediately after the meal. The amount of body weight gained and food consumed during the period was determined.
# [7] = G-70, 0.05 mmoles (114 mg)/kg oral (so in the source)
# [8] = G-70, 0.25 mmoles (57 mg)/kg oral
# [9] = G-70, 1.00 mmoles (227 mg)/kg oral
# [10] = dietary admixture, 1.1 mmoles (250 mg)/kg/day
# [11] = oral intubation, 1.0 mmoles (227 mg)/kg/day
# [12] = 20% Corn Oil, 0.33 mmoles (75 mg)/kg oral
# [13] = 20% Corn Oil, 0.66 mmoles (150 mg)/kg oral
# [14] = 70% Glucose, 0.33 mmoles (75 mg)/kg oral
# [15] = 70% Glucose, 0.66 mmoles (150 mg)/kg oral
# [16] = Chow, 0.33 mmoles (75 mg)/kg oral
# [17] = Chow, 0.66 mmoles (150 mg)/kg oral
# [18] = G-70, 0.50 mmoles (114 mg)/kg oral
smiles,measurement,setting,value
"O=C(O)C[C@@](O)(C(=O)O)[C@@H](Cl)C(=O)O [(-)-threo-Chlorocitric acid, (-)-threo-chlorocitric acid]","Carcass Lipid (% carcass), % of control",[1]; [7],82 % of control
same,"Carcass Lipid total, % of control",[1]; [7],67 % of control
same,"Carcass Lipid, % carcass",[1]; [7],4.43 ± 0.56 % carcass
same,"Carcass Lipid, total",[1]; [7],7.85 ± 1.03 g
same,Carcass Weight,[1]; [7],177 ± 2 g
same,"Carcass Lipid (% carcass), % of control",[1]; [8],84 % of control
same,"Carcass Lipid total, % of control",[1]; [8],76 % of control
same,"Carcass Lipid, % carcass",[1]; [8],4.58 ± 0.09 % carcass
same,"Carcass Lipid, total",[1]; [8],8.98 ± 0.30 g
same,Carcass Weight,[1]; [8],196 ± 4 g
same,"Carcass Lipid (% carcass), % of control",[1]; [9],64 % of control
same,"Carcass Lipid total, % of control",[1]; [9],50 % of control
same,"Carcass Lipid, % carcass",[1]; [9],3.48 ± 0.68 % carcass
same,"Carcass Lipid, total",[1]; [9],5.95 ± 1.28 g
same,Carcass Weight,[1]; [9],169 ± 6 g
same,CBWG (cumulative body weight gain),[2]; [10],-8 ± 6 g
same,CFC (cumulative food consumption),[2]; [10],157 ± 9 g
same,FBW (final body weight),[2]; [10],184 ± 8 g
same,CBWG (cumulative body weight gain),[2]; [11],-27 ± 4 g
same,CFC (cumulative food consumption),[2]; [11],139 ± 6 g
same,FBW (final body weight),[2]; [11],163 ± 5 g
same,"Food intake, 1st hr",[3]; [12],4.0 ± 0.6 g
same,"Food intake, 2nd hr",[3]; [12],1.6 ± 1.1 g
same,"Food intake, 3rd hr",[3]; [12],1.3 ± 0.5 g
same,"Food intake, Total",[3]; [12],6.8 ± 1.6 g
same,"Food intake, 1st hr",[3]; [13],3.6 ± 0.6 g
same,"Food intake, 2nd hr",[3]; [13],2.2 ± 0.4 g
same,"Food intake, 3rd hr",[3]; [13],1.3 ± 0.4 g
same,"Food intake, Total",[3]; [13],7.1 ± 0.9 g
same,"Food intake, 1st hr",[3]; [14],2.2 ± 0.5 g
same,"Food intake, 2nd hr",[3]; [14],2.2 ± 0.5 g
same,"Food intake, 3rd hr",[3]; [14],3.8 ± 0.4 g
same,"Food intake, Total",[3]; [14],8.2 ± 1.1 g
same,"Food intake, 1st hr",[3]; [15],2.7 ± 0.4 g
same,"Food intake, 2nd hr",[3]; [15],1.7 ± 0.3 g
same,"Food intake, 3rd hr",[3]; [15],2.3 ± 0.5 g
same,"Food intake, Total",[3]; [15],6.7 ± 0.7 g
same,"Food intake, 1st hr",[3]; [16],4.2 ± 1.4 g
same,"Food intake, 2nd hr",[3]; [16],1.6 ± 0.4 g
same,"Food intake, 3rd hr",[3]; [16],2.3 ± 0.7 g
same,"Food intake, Total",[3]; [16],8.1 ± 2.1 g
same,"Food intake, 1st hr",[3]; [17],3.6 ± 0.9 g
same,"Food intake, 2nd hr",[3]; [17],1.4 ± 0.2 g
same,"Food intake, 3rd hr",[3]; [17],1.9 ± 0.4 g
same,"Food intake, Total",[3]; [17],6.9 ± 1.2 g
same,Food consumption,"[4]; 0.66 mmoles/kg oral, control 8.2 ± 1.2",4.8 ± 0.7 g
same,Food consumption,"[4]; 2.63 mmoles/kg oral, control 13.5 ± 0.8",2.2 ± 0.5 g
same,Body Weight Gain,[5]; Fa/- lean,-20.7 ± 2.2 g
same,Body Weight Gain,[5]; fa/fa obese,-33.5 ± 3.1 g
same,CBWG (cumulative body weight gain),[6]; [8],12 ± 4 g
same,CFC (cumulative food consumption),[6]; [8],209 ± 10 g
same,FBW (final body weight),[6]; [8],211 ± 7 g
same,CBWG (cumulative body weight gain),[6]; [18],-6 ± 6 g
same,CFC (cumulative food consumption),[6]; [18],176 ± 9 g
same,FBW (final body weight),[6]; [18],188 ± 7 g
same,CBWG (cumulative body weight gain),[6]; [9],-29 ± 6 g
same,CFC (cumulative food consumption),[6]; [9],153 ± 4 g
same,FBW (final body weight),[6]; [9],169 ± 6 g
